From patent US5284853A, “Angiotensin II receptor blocking 2,3,6 substituted quinazolinones” (American Cyanamid Company, priority 1993, dated 1994)
Values joined by “and” are separate entries in the source; they are usually repeats but may differ in a detail not shown here. Identical values can stand only once.

Columns and labels:
Angiotensin II Receptor = biological target: T1, Angiotensin II Receptor (Bos taurus, UniProt P25104); assay: Receptor binding assay: competition of [^125 I](Sar^1,Ile^8)AngII binding to beef adrenal cortex microsomal membranes; conditions: 60 min, room temperature, pH 7.4
T1 construct: The brownish tissue forming the adrenal cortex is scraped off and finely minced with scissors before homogenization; tissue local slaughter house (Maxwell-Cohen); host or cells: beef adrenal cortex, microsomal membranes (100,000×g pellet)
T1 sequence (P25104 1-359): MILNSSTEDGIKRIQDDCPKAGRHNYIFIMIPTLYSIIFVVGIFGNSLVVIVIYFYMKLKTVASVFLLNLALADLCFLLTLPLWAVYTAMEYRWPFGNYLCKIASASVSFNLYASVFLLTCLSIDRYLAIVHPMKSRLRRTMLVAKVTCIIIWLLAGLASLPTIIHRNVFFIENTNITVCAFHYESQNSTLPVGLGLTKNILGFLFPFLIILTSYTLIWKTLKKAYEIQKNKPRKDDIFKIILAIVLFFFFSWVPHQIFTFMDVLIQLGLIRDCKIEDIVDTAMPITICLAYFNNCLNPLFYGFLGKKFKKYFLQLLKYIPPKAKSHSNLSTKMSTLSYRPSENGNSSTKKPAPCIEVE
Source text: Beef adrenals are obtained from a local slaughter house (Maxwell-Cohen). [^125 […]. 2200 Ci/mmole, is purchased from Dupont (KEN@, Boston, Mass.). All unlabeled AngII analogs, Dimethylsulfoxide (DMSO), nucleotides, bovine serum albumin (BBA) are purchased from Sigma Chemical Co., St. Louis, MO U.S.A. Approximately sixteen (16) to twenty (20) beef adrenal glands are processed as follows: fresh adrenal glands received on crushed ice are cleaned of fatty tissues and the tough membranes encapsulating the glands are removed and discarded. The brownish tissue forming the adrenal cortex is scraped off and finely minced with scissors before homogenization care is taken to avoid contamination with medullary tissue during dissection. […] Unless otherwise indicated, all subsequent operations are done at […]. […] The homogenate is centrifuged first at low speed (3,000×g) for 10 min. […] This P2 pellet is discarded and the liquid phase is carefully decanted off in clean centrifuge tubes and recentrifuged at high speed (100,000×g) for 60 min. The translucent final pellet is harvested and combined in a small volume (20-50.0 ml) of […] Tris.HCl buffer, pH 7.2. A 100 ul aliquot is withdrawn and the protein content of the preparation is determined by the Lowry's method (Lowry, O. H., Rosebrough, N. P., Parr, A. L. and Randall, R. J., Protein measurement with Folin phenol reagent. J. Biol. Chem., […], 265-275, 1951). The pelleted membrane is reconstituted in 50.0 mM Tris.HCl buffer containing 0.1 mM of phenylmethylsulfonyl fluoride (PMSF) to give approximately a protein concentration of 2.5 mg per ml of tissue suspension. […] In competition studies, experimental compounds are diluted in dimethylsulfoxide (DMSO) and added in 20 ul to wells before the introduction of tissue membranes. This concentration of DMSO is found to have no negative effects on the binding of [^125 I] ([…] to the membranes. Assays are performed in triplicate. The wells are left undisturbed for 60 min. at room temperature. Following incubation, all wells are harvested at once with a Brandel® Harvester especially designed for a 96 well plate (Brandel® Biomedical Research & Development Labs. Inc., Gaithersburg, MD, U.S.A.). The filter discs are washed with 10×1.0 ml of cold 0.9% NaCl to remove unbound ligand. Presoaking the filter sheet in 0.1% polyethyleneimine in normal saline (PEI/Saline) greatly reduces the radioactivity retained by the filter blanks. This method is routinely used. The filters are removed from the filter grid and counted in a Parkard® Cobra Gamma Counter for 1 min. (Packard Instrument Co., Downers Grove, Ill, U.S.A.). The binding data are analyzed by the non-linear interactive "LUNDON-11" program (LUNDON SOFTWARE Inc., Cleveland, OH U.S.A.).

[1] = system: Angiotensin II (AII) vasopressor response; assay: AII Challenge: antagonism of the angiotensin II vasopressor response in conscious SHR; format: in vivo, Spontaneously hypertensive rats (Male okamoto-Aoki SHR); conditions: 10 mg/kg I.V.; for Average Change / Inhibition: n = 2; for Change / Control Before AII / Response After AII: per rat
Source text: […] Conscious Male okamoto-Aoki SHR, 16-20 weeks old, weighing approximately 330 g are purchased from Charles River Labs (Wilmington, MA). Conscious rats are restrained in a supine position with elastic tape. The area at the base of the tail is locally anesthetized by subcutaneous infiltration with 2% procaine. […] The cannula is secured, heparinized (1,000 I.U./ml), sealed and the wound is closed. The animals are placed in plastic restraining cages in an upright position. The cannula is attached to a Statham P23Db pressure transducer, and pulsatile blood pressure is recorded to 10-15 minutes with a Gould Brush recorder. (Chan et al., (Drug Development Res., 18:75-94, 1989). […] Co., St. […] […] […] […] […] A compound is considered active if at 30 mg/kg i.v. it antagonized at least 50% of the response.

[2] = AII 0.05 mcg/kg IV, 30 min post dose
[3] = AII 0.05 mcg/kg IV, 60 min post dose
[4] = AII 0.05 mcg/kg IV, 90 min post dose
[5] = AII 0.05 mcg/kg IV, 120 min post dose
[6] = AII 0.05 mcg/kg IV, 180 min post dose
[7] = AII 0.1 mcg/kg IV, 30 min post dose
[8] = AII 0.1 mcg/kg IV, 60 min post dose
[9] = AII 0.1 mcg/kg IV, 90 min post dose
[10] = AII 0.1 mcg/kg IV, 120 min post dose
[11] = AII 0.1 mcg/kg IV, 180 min post dose

CCCCc1nc2ccc(C3CC(C(=O)OCC)=NO3)cc2c(=O)n1Cc1ccc(-c2ccccc2-c2nnn[nH]2)cc1 (stereo not shown) [Example 26, Ethyl 5-[2-butyl-3,4-dihydro-4-oxo-3-[[2'-(lH-tetrazol-5-yl)[1,1'-biphenyl]-4-yl]-methyl]-6-cruinazo-linyl]-4,5-dihydro-3-isoxazolecarboxylate]
IC50 (Angiotensin II Receptor): 0.03 µM | Average Change [1, 2]: 15 mmhg | Inhibition [1, 2]: 73% | Change [1, 2]: 15 mmhg | Control Before AII [1, 2]: 180 mmhg and 175 mmhg | Response After AII [1, 2]: 195 mmhg and 190 mmhg | Average Change [1, 3]: 10.5 mmhg | Inhibition [1, 3]: 81% | Change [1, 3]: 20 mmhg and 1 mmhg | Control Before AII [1, 3]: 175 mmhg and 195 mmhg | Response After AII [1, 3]: 195 mmhg and 196 mmhg | Average Change [1, 4]: 17 mmhg | Inhibition [1, 4]: 70% | Change [1, 4]: 15 mmhg and 19 mmhg | Control Before AII [1, 4]: 175 mmhg and 165 mmhg | Response After AII [1, 4]: 190 mmhg and 184 mmhg | Average Change [1, 5]: 20 mmhg | Inhibition [1, 5]: 64% | Change [1, 5]: 20 mmhg | Control Before AII [1, 5]: 165 mmhg | Response After AII [1, 5]: 185 mmhg | Average Change [1, 6]: 17.5 mmhg | Inhibition [1, 6]: 69% | Change [1, 6]: 15 mmhg and 20 mmhg | Control Before AII [1, 6]: 170 mmhg and 165 mmhg | Response After AII [1, 6]: 185 mmhg | Average Change [1, 7]: 11 mmhg | Inhibition [1, 7]: 79% | Change [1, 7]: 7 mmhg and 15 mmhg | Control Before AII [1, 7]: 185 mmhg and 170 mmhg | Response After AII [1, 7]: 192 mmhg and 185 mmhg | Average Change [1, 8]: 12.5 mmhg | Inhibition [1, 8]: 77% | Change [1, 8]: 15 mmhg and 10 mmhg | Control Before AII [1, 8]: 180 mmhg and 175 mmhg | Response After AII [1, 8]: 195 mmhg and 185 mmhg | Average Change [1, 9]: 15 mmhg | Inhibition [1, 9]: 72% | Change [1, 9]: 15 mmhg | Control Before AII [1, 9]: 185 mmhg and 175 mmhg | Response After AII [1, 9]: 200 mmhg and 190 mmhg | Average Change [1, 10]: 18.5 mmhg | Inhibition [1, 10]: 65% | Change [1, 10]: 17 mmhg and 20 mmhg | Control Before AII [1, 10]: 175 mmhg and 165 mmhg | Response After AII [1, 10]: 192 mmhg and 185 mmhg | Average Change [1, 11]: 38.5 mmhg | Inhibition [1, 11]: 28% | Change [1, 11]: 37 mmhg and 40 mmhg | Control Before AII [1, 11]: 170 mmhg and 165 mmhg | Response After AII [1, 11]: 207 mmhg and 205 mmhg

CCCCc1nc2ccc(C3CC(c4ccc(C)cc4)=NO3)cc2c(=O)n1Cc1ccc(-c2ccccc2-c2nnn[nH]2)cc1 (stereo not shown) [Example 23, 2-Butyl-6-[4,5-dihydro-3-(4-methylphenyl)-5-isoxazolyl]-3-[[2'-(lH-tetrazol-5-yl)[1,1'-biphenyl]-4-yl]methyl]-4(3H)-quinazolinone]
IC50 (Angiotensin II Receptor): 0.07 µM
